system: GABA-A receptor; assay: 35S-TBPS binding assay on rat cerebral cortex cell membrane; set-up: species or system Sprague-Dawley rat; conditions: 2 nM 35S-TBPS, GABA added, read-out: 35S-TBPS bindng test, IC50 on inhibiting the TBPS binding activity
Description: 1.2.1 Extraction of Cerebral Cortex Cell Membrane:
1. The cerebral cortex of male Sprague-Dawley rat was isolated.
2. A pre-chilled 0.32 M sucrose solution (one tablet of protease inhibitor was added per 100 ml) was added to the cerebral cortex (the volume of sucrose solution was 10 times the volume of the cerebral cortex). The mixture was crushed with a 50 ml glass tissue homogenizer in batches and mixed well.
3. The mixture was centrifuged at 1500 g, 4° C. for 10 minutes, and the supernatant was collected.
4. The mixture was centrifuged at 20000 g, 4° C. for 30 minutes, and the supernatant was discarded.
5. The precipitate was resuspended with the pre-chilled phosphate buffer saline (PBS) (one tablet of protease inhibitor was added per 100 ml). An average of 4 ml of PBS was added per rat, and the mixture was mixed well with a glass tissue homogenizer.
6. The mixture was centrifuged at 10000 g, 4° C. for 10 minutes, and the supernatant was discarded.
7. Steps 5 and 6 were repeated three times.
8. Finally, the precipitate was resuspended with 4 volumes of PBS. The resulting solution was dispensed, frozen in liquid nitrogen, and stored at −80° C.
9. The protein concentration was measured by the bicinchoninic acid (BCA) method.
1.2.2 ^35S-TBPS Binding Assay
1. 230 μL of PBS was added to each well of a well plate with 1.1 ml volume.
2. 60 μL of the cerebral cortex cell membrane (5 μg/μL) solution was added to each well, and the mixture was mixed well.
3. The test compound (3 μL per well) was added, and the plate was incubated at 25° C. for 5 minutes. The DMSO concentration was 1%. The initial compound concentration was 1 NM, and a 3-fold dilution in gradient was carried out to obtain a total of 8 gradients and 2 replicates. 1% DMSO was used as a negative control, and 10 μM P026-2 was used as a positive control.
4. GABA was added at a final concentration of […], and incubated at 25° C. for 5 minutes. 1 mM GABA solution was formulated, and 1.5 μL of the solution was added to each well.
5. ^35S-TBPS was added at a final concentration of 2 nM. The concentration of isotope mother solution was 9.7 μM. After dilution with PBS for 100 times, 6 μL of the diluted isotope solution was added to each well.
6. The plate was incubated at 4° C. for 20 hours.
7. The FilterMate GF/C plate was pre-treated with 0.5% PEI, and incubated at 4° C. for 1 hour.
8. The FilterMate GF/C plate was washed with Universal Harvester twice, 50 ml PBS each time.
9. The reaction solution was transferred to the GF/C plate, and each well was washed 4 times with 900 μL PBS.
10. The washed GF/C plate was placed at 55° C. and dried for 10 minutes.
11. 40 μL of scintillation solution was added to each well, and the CPM value was read with TopCount.
1.2.3 Experimental Data Processing Method:
In the experiment, the CPM (counts per minute) value was read with TopCount. According to the readings of the High control (DMSO) and the Low control (10 μM of the positive compound) experimental groups, the % inhibition was calculated based on the following formula: % Inhibition=100×(CPMHigh control−CPMSample)/(CPMHigh control−CPMLow control)
The IC50 of the compound was calculated according to the following 4-parameter nonlinear logic formula: Y=Bottom+(Top−Bottom)/(1+10^((Log IC50−X)*Hill Slope)),
The effect of the compound of the present invention on the TBPS binding activity was determined by the above test, and the measured IC50 values are shown in Table 1.

Compound | IC50
C[C@@]1(O)CC[C@@]2(F)[C@H](CC[C@H]3[C@@H]4CC[C@H](C(=O)Cn5ccc(C#N)n5)[C@@]4(C)CC[C@@H]32)C1 [Example 3, 1-(2-((3R,5R,8S,9S,10R,13S,14S,17S)-10-Fluoro-3-hydroxy-3,13-dimethylhexadecahydro-1H-cyclopenta[a]phenanthren-17-yl)-2-oxoethyl)-1H-pyrazole-3-carbonitrile] | 0.0109 µM
C[C@@]1(O)CC[C@@]2(F)[C@H](CC[C@H]3[C@@H]4CC[C@H](C(=O)Cn5nnc6ccc(F)cc65)[C@@]4(C)CC[C@@H]32)C1 [Example 19, 2-(6-Fluoro-1H-benzo[d][1,2,3]triazol-1-yl)-1-((3R,5R,8S,9S,10R,13S,14S,17S)-10-fluoro-3-hydroxy-3,13-dimethylhexadecahydro-1H-cyclopenta[a]phenanthren-17-yl)ethan-1-one] | 0.0152 µM
COc1ccc2c(c1)nnn2CC(=O)[C@H]1CC[C@H]2[C@@H]3CC[C@@H]4C[C@](C)(O)CC[C@]4(F)[C@H]3CC[C@]12C [Example 48, 1-((3R,5R,8S,9S,10R,13S,14S,17S)-10-Fluoro-3-hydroxy-3,13-dimethylhexadecahydro-1H-cyclopenta[a]phenanthren-17-yl)-2-(5-methoxy-1H-benzo[d][1,2,3]triazol-1-yl)ethan-1-one] | 0.0073 µM
C[C@@]1(O)CC[C@@]2(F)[C@H](CC[C@H]3[C@@H]4CC[C@H](C(=O)COc5ccc(C#N)c(F)c5)[C@@]4(C)CC[C@@H]32)C1 [Example 35, 2-Fluoro-4-(2-((3R,5R,8S,9S,10R,13S,14S,17S)-10-fluoro-3-hydroxy-3,13-dimethylhexadecahydro-1H-cyclopenta[a]phenanthren-17-yl)-2-oxoethoxy)benzonitrile] | 0.0151 µM
C[C@@]1(O)CC[C@@]2(F)[C@H](CC[C@H]3[C@@H]4CC[C@H](C(=O)COc5ccc(C#N)cc5)[C@@]4(C)CC[C@@H]32)C1 [Example 33, 4-(2-((3R,5R,8S,9S,10R,13S,14S,17S)-10-Fluoro-3-hydroxy-3,13-dimethylhexadecahydro-1H-cyclopenta[a]phenanthren-17-yl)-2-oxoethoxy)benzonitrile] | 0.0138 µM
C[C@@]1(O)CC[C@@]2(F)[C@H](CC[C@H]3[C@@H]4CC[C@H](C(=O)CNc5cnoc5)[C@@]4(C)CC[C@@H]32)C1 [Example 45, 1-((3R,5R,8S,9S,10R,13S,14S,17S)-10-Fluoro-3-hydroxy-3,13-dimethylhexadecahydro-1H-cyclopenta[a]phenanthren-17-yl)-2-(isoxazol-4-ylamino)ethan-1-one] | 0.0344 µM
C[C@@]1(O)CC[C@@]2(F)[C@H](CC[C@H]3[C@@H]4CC[C@H](C(=O)Cn5cc(-c6ncco6)cn5)[C@@]4(C)CC[C@@H]32)C1 [Example 52, 1-((3R,5R,8S,9S,10R,13S,14S,17S)-10-Fluoro-3-hydroxy-3,13-dimethylhexadecahydro-1H-cyclopenta[a]phenanthren-17-yl)-2-(4-(oxazol-2-yl)-1H-pyrazol-1-yl)ethan-1-one] | 0.023 µM
C[C@@]1(O)CC[C@@]2(F)[C@H](CC[C@H]3[C@@H]4CC[C@H](C(=O)COc5ccc(F)cc5C#N)[C@@]4(C)CC[C@@H]32)C1 [Example 30, 5-Fluoro-2-(2-((3R,5R,8S,9S,10R,13S,14S,17S)-10-fluoro-3-hydroxy-3,13-dimethylhexadecahydro-1H-cyclopenta[a]phenanthren-17-yl)-2-oxoethoxy)benzonitrile] | 0.0072 µM
C[C@@]1(O)CC[C@@]2(F)[C@H](CC[C@H]3[C@@H]4CC[C@H](C(=O)Cn5cc(C(=O)N6CCC6)cn5)[C@@]4(C)CC[C@@H]32)C1 [Example 62, 2-(4-(Azetidine-1-carbonyl)-1H-pyrazol-1-yl)-1-((3R,5R,8S,9S,10R,13S,14S,17S)-10-fluoro-3-hydroxy-3,13-dimethylhexadecahydro-1H-cyclopenta[a]phenanthren-17-yl)ethan-1-one] | 0.0071 µM
C[C@@]1(O)CC[C@@]2(F)[C@H](CC[C@H]3[C@@H]4CC[C@H](C(=O)Cn5cc(Cl)cn5)[C@@]4(C)CC[C@@H]32)C1 [Example 37, 2-(4-Chloro-1H-pyrazol-1-yl)-1-((3R,5R,8S,9S,10R,13S,14S,17S)-10-fluoro-3-hydroxy-3,13-dimethylhexadecahydro-1H-cyclopenta[a]phenanthren-17-yl)ethan-1-one] | 0.017 µM
COc1ccc2nnn(CC(=O)[C@H]3CC[C@H]4[C@@H]5CC[C@@H]6C[C@](C)(O)CC[C@]6(F)[C@H]5CC[C@]34C)c2c1 [Example 47, 1-((3R,5R,8S,9S,10R,13S,14S,17S)-10-Fluoro-3-hydroxy-3,13-dimethylhexadecahydro-1H-cyclopenta[a]phenanthren-17-yl)-2-(6-methoxy-1H-benzo[d][1,2,3]triazol-1-yl)ethan-1-one] | 0.0073 µM
C[C@@]1(O)CC[C@@]2(F)[C@H](CC[C@H]3[C@@H]4CC[C@H](C(=O)CNc5ccccc5F)[C@@]4(C)CC[C@@H]32)C1 [Example 24, 1-((3R,5R,8S,9S,10R,13S,14S,17S)-10-Fluoro-3-hydroxy-3,13-dimethylhexadecahydro-1H-cyclopenta[a]phenanthren-17-yl)-2-((2-fluorophenyl)amino)ethan-1-one] | 0.0102 µM
C[C@@]1(O)CC[C@@]2(F)[C@H](CC[C@H]3[C@@H]4CC[C@H](C(=O)CNc5ccc(F)cc5C#N)[C@@]4(C)CC[C@@H]32)C1 [Example 27, 5-Fluoro-2-((2-((3R,5R,8S,9S,10R,13S,14S,17S)-10-fluoro-3-hydroxy-3,13-dimethylhexadecahydro-1H-cyclopenta[a]phenanthren-17-yl)-2-oxoethyl)amino)benzonitrile] | 0.0075 µM
C[C@@]1(O)CC[C@@]2(F)[C@H](CC[C@H]3[C@@H]4CC[C@H](C(=O)COc5ccc(F)cc5F)[C@@]4(C)CC[C@@H]32)C1 [Example 36, 2-(2,4-Difluorophenoxy)-1-((3R,5R,8S,9S,10R,13S,14S,17S)-10-fluoro-3-hydroxy-3,13-dimethylhexadecahydro-1H-cyclopenta[a]phenanthren-17-yl)ethan-1-one] | 0.0137 µM
C[C@@]1(O)CC[C@@]2(F)[C@H](CC[C@H]3[C@@H]4CC[C@H](C(=O)Cn5cc([N+](=O)[O-])cn5)[C@@]4(C)CC[C@@H]32)C1 [Example 58, 1-((3R,5R,8S,9S,10R,13S,14S,17S)-10-Fluoro-3-hydroxy-3,13-dimethylhexadecahydro-1H-cyclopenta[a]phenanthren-17-yl)-2-(4-nitro-1H-pyrazol-1-yl)ethan-1-one] | 0.0378 µM
Cc1cnn(CC(=O)[C@H]2CC[C@H]3[C@@H]4CC[C@@H]5C[C@](C)(O)CC[C@]5(F)[C@H]4CC[C@]23C)c1 [Example 11, 1-((3R,5R,8S,9S,10R,13S,14S,17S)-10-Fluoro-3-hydroxy-3,13-dimethylhexadecahydro-1H-cyclopenta[a]phenanthren-17-yl)-2-(4-methyl-1H-pyrazol-1-yl)ethan-1-one] | 0.0413 µM
C[C@@]1(O)CC[C@@]2(F)[C@H](CC[C@H]3[C@@H]4CC[C@H](C(=O)COc5cc(C#N)ccc5F)[C@@]4(C)CC[C@@H]32)C1 [Example 34, 4-Fluoro-3-(2-((3R,5R,8S,9S,10R,13S,14S,17S)-10-fluoro-3-hydroxy-3,13-dimethylhexadecahydro-1H-cyclopenta[a]phenanthren-17-yl)-2-oxoethoxy)benzonitrile] | 0.0093 µM

From patent US11661437B2, “Steroid derivative regulators, method for preparing the same, and uses thereof” (priority 2018, dated 2023)
